{
  "source": "ChEMBL document CHEMBL5247592",
  "about": "“Discovery of novel VEGFR-2-PROTAC degraders based on the localization of lysine residues via recruiting VHL for the treatment of gastric cancer” (Eur J Med Chem, 2022)",
  "key": {"HGC-27 [1]": {"tested_on": "HGC-27", "assay": "Induction of cell cycle arrest in human HGC-27 cells assessed as S phase cells at 0.1 uM incubated for 24 hrs by PI staining based flow cytometric analysis (reference value: 26.4%)", "format": "functional"}, "[2]": {"assay": "Cytotoxicity against human GES1 cells assessed as inhibition of cell growth incubated for 72 hrs by MTT assay", "format": "toxicity, cell-based"}, "HGC-27 [3]": {"tested_on": "HGC-27", "assay": "Induction of apoptosis in human HGC-27 cells assessed as late apoptotic cells at 0.033 uM incubated for 24 hrs by Annexin V-FITC/PI staining based analysis (reference value: 3%)", "format": "functional"}, "HGC-27 [4]": {"tested_on": "HGC-27", "assay": "Antiinvasive activity in human HGC-27 cells assessed as reduction in number of invasive cells at 0.33 uM incubated for 24 hrs by transwell invasion assay (reference value: 118)", "format": "functional"}, "[5]": {"molecular_target": "T1, von Hippel-Lindau disease tumor suppressor/Vascular endothelial growth factor receptor 2 (Homo sapiens, UniProt P35968+P40337)", "assay": "PROTAC activity at VHL/VEGFR2 in human HGC-27 cells assessed as reduction in VEGFR2 protein level by measuring maximal efficacy at 0.15 uM incubated for 24 hrs by Western blot analysis relative to control", "format": "cell-based"}, "HGC-27 [6]": {"tested_on": "HGC-27", "assay": "Induction of cell cycle arrest in human HGC-27 cells assessed as S phase cells at 0.33 uM incubated for 24 hrs by PI staining based flow cytometric analysis (reference value: 26.4%)", "format": "functional"}, "[7]": {"molecular_target": "T1, von Hippel-Lindau disease tumor suppressor/Vascular endothelial growth factor receptor 2", "assay": "PROTAC activity at VHL/VEGFR2 in HUVEC cells assessed as reduction in VEGFR2 protein level incubated for 24 hrs by Western blot analysis", "format": "cell-based"}, "HGC-27 [8]": {"tested_on": "HGC-27", "assay": "Induction of apoptosis in human HGC-27 cells assessed as early apoptotic cells at 0.033 uM incubated for 24 hrs by Annexin V-FITC/PI staining based analysis (reference value: 1.7 %)", "format": "functional"}, "[9]": {"molecular_target": "T1, von Hippel-Lindau disease tumor suppressor/Vascular endothelial growth factor receptor 2", "assay": "PROTAC activity at VHL/VEGFR2 in human HGC-27 cells assessed as reduction in relative VEGRF2 expression level at 1 uM preincubated with MG-132 for 2 hrs followed by compound addition and measured after 24 hrs by Western blot analysis", "format": "cell-based"}, "[10]": {"molecular_target": "T1, von Hippel-Lindau disease tumor suppressor/Vascular endothelial growth factor receptor 2", "assay": "PROTAC activity at VHL/VEGFR2 in HUVEC cells assessed as reduction in VEGFR2 protein level by measuring maximal efficacy at 0.007 to 10 uM incubated for 24 hrs by Western blot analysis relative to control", "format": "cell-based", "details": "dose 0.007-10 µM"}, "[11]": {"molecular_target": "T1, von Hippel-Lindau disease tumor suppressor/Vascular endothelial growth factor receptor 2", "assay": "PROTAC activity at VHL/VEGFR2 in human HGC-27 cells assessed as reduction in VEGFR2 protein level incubated for 24 hrs by Western blot analysis", "format": "cell-based"}, "[12]": {"assay": "Effect on VEGFR2 mRNA expression in human HGC-27 cells at 0.33 uM incubated for 24 hrs by qPCR analysis relative to control", "format": "functional"}, "HGC-27 [13]": {"tested_on": "HGC-27", "assay": "Induction of apoptosis in human HGC-27 cells assessed as late apoptotic cells at 3.3 uM incubated for 24 hrs by Annexin V-FITC/PI staining based analysis (reference value: 3%)", "format": "functional"}, "HGC-27 [14]": {"tested_on": "HGC-27", "assay": "Induction of cell cycle arrest in human HGC-27 cells assessed as S phase cells at 1 uM incubated for 24 hrs by PI staining based flow cytometric analysis (reference value: 26.4%)", "format": "functional"}, "[15]": {"molecular_target": "T1, von Hippel-Lindau disease tumor suppressor/Vascular endothelial growth factor receptor 2", "assay": "PROTAC activity at VHL/VEGFR2 in human HGC-27 cells assessed as residual activity by measuring VEGFR2 expression level at 1 uM incubated for 24 hrs followed by compound washout and measured after 8 hrs by Western blot analysis relative to control", "format": "cell-based"}, "HGC-27 [16]": {"tested_on": "HGC-27", "assay": "Inhibition of colony formation in human HGC-27 cells incubated for 8 days by crystal violet staining based analysis", "format": "functional, cell-based", "details": "dose 0.033-3.33 µM, time 8.0 day"}, "HGC-27 [17]": {"tested_on": "HGC-27", "assay": "Inhibition of cell migration in human HGC-27 cells assessed as suppression of cell migration at 1 uM incubated for 6 hrs by wound healing assay relative to control", "format": "functional"}, "HGC-27 [18]": {"tested_on": "HGC-27", "assay": "Induction of apoptosis in human HGC-27 cells assessed as late apoptotic cells at 0.33 uM incubated for 24 hrs by Annexin V-FITC/PI staining based analysis (reference value: 3%)", "format": "functional"}, "[19]": {"molecular_target": "T1, von Hippel-Lindau disease tumor suppressor/Vascular endothelial growth factor receptor 2", "assay": "PROTAC activity at VHL/VEGFR2 in human HGC-27 cells assessed as residual activity by measuring VEGFR2 expression level at 1 uM incubated for 24 hrs followed by compound washout and measured after 24 hrs by Western blot analysis relative to control", "format": "cell-based"}, "HGC-27 [20]": {"tested_on": "HGC-27", "assay": "Induction of cell cycle arrest in human HGC-27 cells assessed as G0/G1 phase cells at 0.33 uM incubated for 24 hrs by PI staining based flow cytometric analysis (reference value: 47.4%)", "format": "functional"}, "HGC-27 [21]": {"tested_on": "HGC-27", "assay": "Induction of cell cycle arrest in human HGC-27 cells assessed as G0/G1 phase cells at 0.1 uM incubated for 24 hrs by PI staining based flow cytometric analysis (reference value: 47.4%)", "format": "functional"}, "HGC-27 [22]": {"tested_on": "HGC-27", "assay": "Antiinvasive activity in human HGC-27 cells assessed as reduction in number of invasive cells at 3.33 uM incubated for 24 hrs by transwell invasion assay (reference value: 118)", "format": "functional"}, "HGC-27 [23]": {"tested_on": "HGC-27", "assay": "Induction of cell cycle arrest in human HGC-27 cells assessed as S phase cells at 3.33 uM incubated for 24 hrs by PI staining based flow cytometric analysis (reference value: 26.4%)", "format": "functional"}, "HGC-27 [24]": {"tested_on": "HGC-27", "assay": "Antiinvasive activity in human HGC-27 cells assessed as reduction in number of invasive cells at 1 uM incubated for 24 hrs by transwell invasion assay (reference value: 118)", "format": "functional"}, "[25]": {"molecular_target": "T1, von Hippel-Lindau disease tumor suppressor/Vascular endothelial growth factor receptor 2", "assay": "PROTAC activity at VHL/VEGFR2 in human HGC-27 cells assessed as half-life of intracellular VEGFR2 protein […] at 1 uM measured upto 24 hrs in the presence of cycloheximide by Western blot analysis (reference value: 5.45 hrs)", "format": "cell-based"}, "[26]": {"molecular_target": "T1, von Hippel-Lindau disease tumor suppressor/Vascular endothelial growth factor receptor 2", "assay": "PROTAC activity at VHL/VEGFR2 in human HGC-27 cells assessed as induction of VEGFR2 degradation at 1 uM measured after 4 hrs by Western blot analysis relative to control", "format": "cell-based"}, "[27]": {"assay": "Effect on VEGFR2 mRNA expression in human HGC-27 cells at 0.1 uM incubated for 24 hrs by qPCR analysis relative to control", "format": "functional"}, "[28]": {"molecular_target": "T1, von Hippel-Lindau disease tumor suppressor/Vascular endothelial growth factor receptor 2", "assay": "PROTAC activity at VHL/VEGFR2 in human HGC-27 cells assessed as reduction in relative VEGRF2 expression level at 1 uM preincubated with MLN4924 for 2 hrs followed by compound addition and measured after 24 hrs by Western blot analysis", "format": "cell-based"}, "HGC-27 [29]": {"tested_on": "HGC-27", "assay": "Induction of apoptosis in human HGC-27 cells assessed as necrotic cells at 1 uM incubated for 24 hrs by Annexin V-FITC/PI staining based analysis (reference value: 0.65 %)", "format": "functional"}, "[30]": {"molecular_target": "T1, von Hippel-Lindau disease tumor suppressor/Vascular endothelial growth factor receptor 2", "assay": "PROTAC activity at VHL/VEGFR2 in human HGC-27 cells assessed as residual activity by measuring VEGFR2 expression level at 1 uM incubated for 24 hrs followed by compound washout and measured after 12 hrs by Western blot analysis relative to control", "format": "cell-based"}, "[31]": {"molecular_target": "T1, von Hippel-Lindau disease tumor suppressor/Vascular endothelial growth factor receptor 2", "assay": "PROTAC activity at VHL/VEGFR2 in human HGC-27 cells assessed as induction of VEGRF2 protein degradation at 1 uM preincubated with MLN4924 for 2 hrs followed by compound addition and measured after 24 hrs by Western blot analysis", "format": "cell-based"}, "HGC-27 [32]": {"tested_on": "HGC-27", "assay": "Induction of cell cycle arrest in human HGC-27 cells assessed as accumulation of cells at G2/M phase incubated for 24 hrs by PI staining based flow cytometric analysis", "format": "functional", "details": "dose 0.033-3.33 µM"}},
  "note": "Calls of active or inactive are those of the source. No cut-off for these calls is given here.",
  "data": [
    {"smiles": "Cc1ccc(NC(=O)Cn2cc(-c3ccc4c(NC(=O)c5ccc(NC(=O)CCCCCCCCC(=O)N[C@H](C(=O)N6C[C@H](O)C[C@H]6C(=O)NCc6ccc(-c7scnc7C)cc6)C(C)(C)C)cc5)n[nH]c4c3)cn2)cc1C(F)(F)F", "values": [
      {"measurement": "Activity", "setting": "HGC-27 [1]", "value": 25.8, "unit": "%"},
      {"measurement": "IC50 at 72 h", "setting": "[2]", "value": 20000, "unit": "nM"},
      {"measurement": "Activity", "setting": "HGC-27 [3]", "value": 3, "unit": "%"},
      {"measurement": "Activity", "setting": "HGC-27 [4]", "value": 36},
      {"measurement": "Emax", "setting": "[5]", "value": 73.7, "unit": "%"},
      {"measurement": "Activity", "setting": "HGC-27 [6]", "value": 23.4, "unit": "%"},
      {"measurement": "Activity", "setting": "[7]", "value": "Dose-Dependent Effect"},
      {"measurement": "EC50", "setting": "[7]", "value": 510, "unit": "nM"},
      {"measurement": "Activity", "setting": "HGC-27 [8]", "value": 2, "unit": "%"},
      {"measurement": "Activity", "setting": "[9]", "value": "inactive"},
      {"measurement": "Emax", "setting": "[10]", "value": 76.6, "unit": "%"},
      {"measurement": "EC50", "setting": "[11]", "value": 84, "unit": "nM"},
      {"measurement": "Activity", "setting": "[12]", "value": 83, "unit": "%"},
      {"measurement": "Activity", "setting": "HGC-27 [13]", "value": 30.5, "unit": "%"},
      {"measurement": "Activity", "setting": "HGC-27 [14]", "value": 28.5, "unit": "%"},
      {"measurement": "Activity", "setting": "[15]", "value": 46, "unit": "%"},
      {"measurement": "inhibition", "setting": "HGC-27 [16]", "value": "Dose-Dependent Effect"},
      {"measurement": "inhibition at 1 µM", "setting": "HGC-27 [17]", "value": 11.7, "unit": "%"},
      {"measurement": "Activity", "setting": "HGC-27 [18]", "value": 6.7, "unit": "%"},
      {"measurement": "Activity", "setting": "[19]", "value": 77, "unit": "%"},
      {"measurement": "Activity", "setting": "HGC-27 [20]", "value": 23.9, "unit": "%"},
      {"measurement": "Activity", "setting": "HGC-27 [21]", "value": 44.3, "unit": "%"},
      {"measurement": "Activity", "setting": "HGC-27 [22]", "value": 4},
      {"measurement": "Activity", "setting": "HGC-27 [23]", "value": 21.2, "unit": "%"},
      {"measurement": "Activity", "setting": "HGC-27 [24]", "value": 11},
      {"measurement": "T1/2", "setting": "[25]", "value": 5.45, "unit": "h"},
      {"measurement": "Activity", "setting": "[26]", "value": 16.9, "unit": "%"},
      {"measurement": "Activity", "setting": "[27]", "value": 90, "unit": "%"},
      {"measurement": "Activity", "setting": "[28]", "value": "inactive"},
      {"measurement": "Activity", "setting": "HGC-27 [29]", "value": 0.64, "unit": "%"},
      {"measurement": "Activity", "setting": "[30]", "value": 66.3, "unit": "%"},
      {"measurement": "Activity", "setting": "[31]", "value": "inactive"},
      {"measurement": "Activity", "setting": "HGC-27 [32]", "value": "Dose-Dependent Effect"}
    ]}
  ]
}
